We go through four compounds from US20240035092A1, “METHODS, KITS, AND SYSTEMS FOR PREDICTING PATIENT OUTCOMES” (SAPERE BIO, INC., priority 2020, published 2024).

For data set [1], the system named is advanced breast cancer, hormone receptor-positive, HER2-negative. In words: Time to progression on CDK4/6i treatment. It counts as in vivo, human. To be noted: Palbociclib with letrozole or fulvestrant. The source says: Six patients diagnosed with advanced breast cancer who were hormone receptor-positive, HER2-negative, were enrolled into a study and received a CDK4/6 inhibitor, Palbociclib, in combination with hormone-based therapy (letrozole or fulvestrant). Venous blood samples were collected from each patient into an EDTA tube prior to CDK4/6i administration, and at approximately 3 and 6 months (see FIG. 15 for timing) after the start of drug administration. T cells were isolated from blood samples and p16 expression levels were calculated as described in Example 1. Patients were followed to determine how long they received CDK4/6i treatment before becoming resistant to CDK4/6i and their cancer began to progress again (time to progression).

Data set [2] relates to patients diagnosed with early-stage breast cancer. In words: Grade 2 or higher CIPN diagnosed by a clinician (CTCAE-CIPN) during taxane chemotherapy. It counts as in vivo, human. To be noted: adjuvant or neoadjuvant chemotherapy, at any point during chemotherapy, 89 patients on paclitaxel, 70 on docetaxel. An excerpt:
One hundred fifty-nine patients diagnosed with early-stage breast cancer and scheduled to undergo adjuvant or neoadjuvant chemotherapy treatment that included a taxane regimen (paclitaxel or docetaxel) were enrolled. To be enrolled in the study, each patient must have met all of the inclusion criteria. Inclusion criteria: women ages 21 or older with histologically confirmed Stage I-III breast cancer and scheduled for adjuvant or neoadjuvant chemotherapy. Venous blood samples were collected from each patient into an EDTA tube during the patient's consultation visit with the oncologist or at their first chemotherapy session before chemotherapy was administered. Additional blood samples were collected at the end of chemotherapy treatment for 124 of the initial 159 patients. Median age of patients at consent was 58 years (24-83 range), median p16 was 9.5 (6.8-11.6 range), and median p16Age GAP was −22 years (−94-37 range). T cells were isolated from blood samples and p16 expression levels were calculated as described in Example 1.
Development of grade 2 or higher CIPN as diagnosed by a clinician (CTCAE-CIPN) at any point during chemotherapy was an endpoint of the study. […]

The test system is the same in data set [3]. As to the kind of experiment: CIPN risk prediction score built from the p16Age GAP regression model. Details: species or system human. The settings on record: patient with a CIPN score of 11 (scale 0-20). Here is the method: Regression models were built by step-wise addition of variables such as co-morbidities, chronological age, p16, or p16Age GAP and interactions between the variables were also considered. […] In contrast, when p16Age GAP was used instead of p16 (Model 2), p16Age GAP was able to replace all co-morbidities, chronological age, and p16 as variables to yield the model with the similar fit (AUC 0.76, NPV 87%). The ROC curve depicted in FIG. 4 was calculated using Model 2. The p16Age GAP-containing model was a strong predictor of the risk of developing CIPN.
The data from the regression model shown in FIG. 4 was used to build a CIPN risk prediction score according to standard methods (see, e.g., Hurria, J. Clin Oncol. (2011) and Hurria J. Clin Oncology, (2016)). All variables were assigned a weight based on their R coefficients in the regression model and the sum of all weights was added to create a final risk score for each patient. For a CIPN risk model, the range was adjusted so the total score scale was 0-20, with a single value for each patient. […] In certain embodiments, this risk differential between regimens of similar efficacy can help guide regimen selection. […]

The subject of data set [4] is CIPN patients. To be noted: cited from earlier work.

As to `CC(=O)c1c(C)c2cnc(Nc3ccc(N4CCNCC4)cn3)nc2n(C2CCCC2)c1=O` [CDK 4/6i, Palbociclib], the “time to progression (resistance to CDK 4/6i treatment)” value was 35-50 months in data set [1] (four patients whose p16 expression did not increase above measurement precision) and 10-20 months in data set [1] (two patients whose p16 expression increased above measurement precision after treatment).
On to `CC(=O)O[C@@]12CO[C@@H]1C[C@H](O)[C@@]1(C)C(=O)[C@H](O)C3=C(C)[C@@H](OC(=O)[C@H](O)[C@@H](NC(=O)OC(C)(C)C)c4ccccc4)C[C@@](O)([C@@H](OC(=O)c4ccccc4)[C@H]21)C3(C)C` [docetaxel], for which the “patients who developed grade 2 or higher CIPN” value in data set [2] was 10%. Further, in data set [3], the “risk of CIPN” value is 9%.
With `CNCC[C@H](Oc1cccc2ccccc12)c1cccs1` [Duloxetine], the “decrease in pain score, on average” value in data set [4] (CIPN patients, improvement derived primarily from patients who received platinum-containing agents) is on record as “one”. In addition, the “benefit on CIPN pain” value in data set [4] (patients receiving taxanes) is listed as “no clear benefit”.
`CC(=O)O[C@H]1C(=O)[C@@]2(C)[C@H]([C@H](OC(=O)c3ccccc3)[C@]3(O)C[C@H](OC(=O)[C@H](O)[C@@H](NC(=O)c4ccccc4)c4ccccc4)C(C)=C1C3(C)C)[C@]1(OC(C)=O)CO[C@@H]1C[C@@H]2O` [paclitaxel]: the “patients who developed grade 2 or higher CIPN” value in data set [2] was 46%. In data set [3], the “risk of CIPN” value is listed as 50%.
